Results published in ChEMBL document CHEMBL3301361, “Experimental in vitro DMPK and physicochemical data on a set of publicly disclosed compounds”.

Columns and labels:
[1] = physchem; settings: octan-1-ol/water, pH 7.4, LogD7.4
[2] = in vitro; settings: human, plasma
[3] = in vitro; settings: SD, HW or BN, rat, plasma
[4] = in vitro; settings: Beagle, dog, plasma

Structure (SMILES) | logD [1] | fraction unbound at 5 h ([2]; PPB) | fraction unbound at 5 h [3] | fraction unbound at 5 h [4] | fraction unbound at 5 h [2]
Cc1cc(Nc2nc(O[C@@H](C)c3ncc(F)cn3)ncc2Cl)[nH]n1 | 1.82 | 0.249 | 0.339 | 0.489 | 
CCOc1cc2nnc(C(N)=O)c(Nc3ccc(C)cc3F)c2cc1N1CCN(C)CC1 |  | 0.016 | 0.0633 | 0.062 | 
CC(C)(C)OC(=O)NC[C@H]1CC[C@H](CNC(=O)c2cc(N3CCC(CCO)CC3)nc3ccccc23)CC1 |  | 0.007 | 0.0099 | 0.0084 | 
Cc1cc(C(C)Nc2ccccc2)c2nc(N3CCOCC3)cc(=O)n2c1 (centres undefined) |  | 0.0532 | 0.0467 | 0.0606 | 
N[C@H]1CCN(c2c(Cl)cccc2/C=C2\SC(=O)NC2=O)C1 | 1.89 | 0.0234 | 0.0467 | 0.0581 | 
CCOc1noc2cc(OCCC3CCN(c4ccc(C)nn4)CC3)ccc12 |  | 0.0014 | 0.0015 | 0.0031 | 
Cc1ccc(NC(=O)c2cccc(C(C)(C)C#N)c2)cc1Nc1ccc2ncn(C)c(=O)c2c1 |  | 0.0039 | 0.5 | 0.004 | 
CCNC(=O)Nc1nc2cc(-c3cccnc3)cc(-c3ncccc3F)c2[nH]1 |  | 0.0136 | 0.028 | 0.04 | 
C[S+]([O-])Cc1ccc(C(=O)Nc2ccc(OCCOCCO)nc2C(=O)NCC2CCC2)c2ccccc12 (centres undefined) |  | 0.0499 | 0.0343 | 0.0581 | 
CC(C)(C)NC(=O)NCCN1CCCC(NC(=O)c2cc(Cl)cc(Cl)c2)C1 (centres undefined) |  | 0.028 | 0.0391 | 0.0633 | 
CC(C)(C)NC(=O)NCCN1CCOC(CNC(=O)c2cc(Cl)cc(Cl)c2)C1 (centres undefined) |  | 0.0606 | 0.0676 | 0.0818 | 
CC(C)(C)NC(=O)NCCN1CCC(CNC(=O)c2cc(Cl)cc(Cl)c2)C1 (centres undefined) |  | 0.0968 | 0.139 | 0.0909 | 
COc1ccc2c(C)cc(N[C@H]3CC[C@H](NCc4cn(C)c5ccc(C#N)cc45)C3)nc2c1 |  | 0.0139 | 0.0146 | 0.0209 | 
CCOc1cc2ncc(C(N)=O)c(Nc3cccc(Cl)c3F)c2cc1N1CCN(C)CC1 |  | 0.0705 | 0.134 | 0.204 | 
Cc1cc(Nc2nc(N[C@@H](C)c3ncc(F)cn3)c(C#N)nc2C)n[nH]1 | 1.92 | 0.304 | 0.349 | 0.454 | 
COc1cc2c(cc1OC)C(=O)C(CC1CCN(Cc3ccccc3)CC1)C2 (centres undefined) [DONEPEZIL] |  | 0.105 | 0.339 | 0.613 | 
O=C(Cn1c(Cl)cnc(NCC(F)(F)c2ccccn2)c1=O)NCc1ncccc1F [DPOC-4088] |  | 0.28 | 0.208 | 0.392 | 
CCCn1c(=O)[nH]c(=O)c2[nH]cnc21 [ENPROFYLLINE] |  | 0.329 | 0.212 | 0.392 | 
CN(C)CCCN1c2ccccc2CCc2ccccc21 [IMIPRAMINE] |  |  | 0.173 | 0.0437 | 0.121
C[C@@H]1C[C@H]2[C@@H]3CCC4=CC(=O)C=C[C@]4(C)[C@@]3(Cl)[C@@H](O)C[C@]2(C)[C@@]1(OC(=O)c1ccco1)C(=O)CCl [MOMETASONE FUROATE] |  | 0.0023 | 0.001 | 0.003 | 
COC(=O)C1=C(C)NC(C)=C(C(=O)OC)C1c1ccccc1[N+](=O)[O-] [NIFEDIPINE] |  |  | 0.0023 | 0.0736 | 0.0383
O=C(O)CCn1c2c(c3ccccc31)C[C@H](NS(=O)(=O)c1ccc(F)cc1)CC2 [RAMATROBAN] |  | 0.0274 | 0.0328 | 0.0437 | 
